Test results taken from PubChem BioAssay AID488890 (Southern Research Specialized Biocontainment Screening …, 2010).
Results filed as inconclusive are left out. Active and inactive are the calls of the source. The rule behind the calls is not given here.

test system: Mycobacterium tuberculosis non-replicating, growth inhibition; test: growth inhibition of non-replicating M. tuberculosis (AID 488890)

SMILES | IC50
COc1ccc2cc(C(=O)C3CCCN(Cc4ccccn4)C3)ccc2c1 (stereo not drawn) | 6.59 µM
CCOc1ccc(NC(=O)CCNC(=O)c2ccc(Br)cc2)cc1 | 13.8 µM (inactive)
C/C(=N\NC(=O)c1ccc(Cl)cc1)c1ccccn1 | 0.89 µM
CCOc1ccc2nc(/N=C/c3nc(-c4ccccc4)oc3O)sc2c1 | 6.2 µM
CC(C)Cn1c(=O)c(C(=O)Nc2ccncc2)c(O)c2ccccc21 | 2.86 µM
O=C(Cn1cc([N+](=O)[O-])nc1[N+](=O)[O-])N1CCN(c2ccccc2)CC1 | 12.8 µM (inactive)
CCn1c(-c2ccco2)nc2ccccc21 | 8.99 µM
Cc1csc(NC(=O)c2cc([N+](=O)[O-])cc([N+](=O)[O-])c2)n1 | 7.76 µM
COc1ccccc1C1=Nn2c(nnc2C2CCCCC2)SC1 | 13.9 µM (inactive)
COc1cc(CNCCc2ccccc2)cc(Cl)c1OCc1ccccc1 | 7.43 µM
O=C(COC(=O)CCN1C(=O)/C(=C\C=C\c2ccccc2)SC1=S)Nc1cc(F)ccc1F | 13.9 µM (inactive)
O=C(COC(=O)c1ccccn1)Nc1cccc(Cl)c1Cl | 6.11 µM
CCCN(Cc1nnc(-c2ccccc2Cl)o1)C(=O)c1cc([N+](=O)[O-])cc([N+](=O)[O-])c1 | 5.83 µM
C/C(=N\NC(=O)c1ccncc1)c1cc2ccccc2oc1=O | 0.43 µM
COc1ccc(C2(O)CCN(CCCCOc3ccccc3)CC2)cc1 | 18.1 µM (inactive)
O=C1N(c2ccc3c(c2)OCCO3)C(c2ccccc2)C1(F)F (stereo not drawn) | 2.28 µM
O=C(Nc1cccc(NC(=O)c2cccs2)c1)c1ccc([N+](=O)[O-])o1 | 5.43 µM
Cc1ccc(C)c(-c2nnc(NC(=O)c3ccc([N+](=O)[O-])o3)o2)c1 | 0.46 µM
O=C(NCc1cccs1)c1ccc(Br)o1 | 3.37 µM

SMILES | IC50
Cc1c(C(=O)NNC(=O)c2csc(N3CCOCC3)n2)oc2ccccc12 | 7.63 µM
Cc1cc(C(=O)NNc2ccc(Cl)cc2)no1 | 1.61 µM
c1ccc(-c2ccccc2OCCCCn2ccnc2)cc1 | 33.5 µM (inactive)
CC(C)(C)c1ccc2c(c1)OC(C(=O)N/N=C\c1ccccn1)CO2 (stereo not drawn) | 4.8 µM
CC(C)(C)c1cc(CN2CCN(CCO)CC2)cc(C(C)(C)C)c1O | 3.78 µM
O=C(COc1cccc2ccccc12)Nc1nc2ccccc2[nH]1 | 5.36 µM
COc1ccc(C(=O)C=CNNC(=O)c2ccc(Cl)cc2)cc1 | 0.48 µM
c1ccc(Nc2nc(Nc3ccccc3)nc(N3CCNCC3)n2)cc1 | 12 µM (inactive)
O=C(CCC(=O)Nc1ccc(Cl)cc1Cl)N/N=C/c1ccc([N+](=O)[O-])o1 | 2.18 µM
CCOc1cc(CNCCO)cc(Br)c1OCc1ccc(Cl)cc1 | 5.65 µM
CC(C)NC(=O)C1COc2ccccc2O1 (stereo not drawn) | 36.5 µM (inactive)
O=C1Nc2ccccc2/C1=C/C(=O)c1cccs1 | 13.4 µM (inactive)
CCCn1c(NC(=O)c2ccc([N+](=O)[O-])o2)nc2ccccc21 | 7.64 µM
S=c1[nH]c2ccccc2o1 | 27.5 µM (inactive)
Cc1ccc(OCCCCn2ccnc2)c([N+](=O)[O-])c1 | 28.5 µM (inactive)
CC1=NNC(=O)/C1=C\c1cn(-c2ccccc2)nc1-c1cccs1 | 4.96 µM
COc1ccc(NC(=O)c2ccc(COCC(F)(F)C(F)F)cc2)cc1 | 12.6 µM (inactive)
C/C(=N\NC(=O)COc1cccc(C)c1)c1ccc2ccccc2c1O | 0.18 µM
COc1ccc(/C=N/Nc2cc(C)nc(-n3nc(C)cc3C)n2)c(OC)c1 | 3.3 µM
